Data taken from patent US20190327974A1, “SYNERGISTS FOR IMPROVED PESTICIDES” (priority 2017, published 2019).
pKi: −log10 of the molar value.

What was measured:
[1] = tested on: Myzus persicae (Green peach aphid); experiment: CPE combined with boronic acid derivatives on small broad bean leaves; type: in vivo; conditions: for Percentage of efficacy: boronic acid, where present, 0.2 mg/ml; for toxicity of the boronic acid derivative alone (in words): ANOVAs followed by Newman-Keuls tests, threshold 5%; for insecticidal efficacy of CPE on addition of the compound (in words): CPE at 2.8 g a.i./ha and 5.6 g a.i./ha
Procedure: […] The treatment was performed with an agricultural nozzle (300 L per hectare) […]. A non-treated control condition were also evaluated in parallel. Statistical analysis of the data was then performed. When the leaves were totally dry, 3 leaves were sampled and infested with 3 wingless adults of M. persicae per leaf fragment.
• T+1 (DAT 1)—One day later the number of adults remaining on the leaves was counted. • T+3 (DAT 3)—3 days after treatment the aphid population was estimated; • T+7 (DAT 7)—7 days after treatment the development of aphid population was estimated.
3 bean leaves fragments per microbox*4 microbox per condition (1 condition is 1 formulation at 1 dose)*9 adult aphids per microbox*4 insecticides (3 chlorpyrifos derivates+clorpyrifos alone)*4 rates+2 controls (1 reference insecticide formulation at one dose and non-treated)*3 assessments timings (DAT+1, DAT+3 and DAT+7).

[2] = tested on: HB-2 and MDA-MB-231 human cell lines; experiment: Cell toxicity, two human cell lines HB-2 and MDA-MB-231; type: cell-based; conditions: 48 h, up to 100 μM
Procedure: FIG. 13 depicts that boronic acids show little cell toxicity. Compounds 1-5 as well as 3.9 and 3.10 were incubated for 48 h with two different human cell lines HB-2 and MDA-MB-231 at 7 concentrations up to 100 μM. Cell viability was measured after 48 h using Cell Titer Glo assay.
A seven-point, two-fold dose response series, with a 100 uM as the upper limit and a DMSO-only control point was generated using an Echo 550 liquid handler (Labcyte Inc.) in 384-well plates. Subsequently, the human breast cell lines MDA-MB-231 (tumorigenic) and HB2 (non-tumorigenic) were seeded (1000 cells/well) using a multi-drop Combi (Thermo Fisher Scientific) on top of the compounds. Plates were then incubated at 37° C. and 5% CO2 for 48 hours upon which cell viability was assessed by adding CellTiter-Glo® (Promega) to the reaction. The luminescence signal was measured on a Pherastar FS multi-mode plate reader (BMG Labtech).

[3] = target: Culex quinquefasciatus CBE (Culex quinquefasciatus, UniProt Q23734); experiment: Inhibition of insect CBEs, 4-NPB substrate; type: biochemical; conditions: n=3
Procedure: (§1) Assays were performed with 4-NPB as the substrate.

Aedes aegypti CBE = experiment: Inhibition of insect CBEs, 4-NPB substrate; type: biochemical; conditions: n=3
Procedure: as §1

Anopheles gambiae CBE = experiment: Inhibition of insect CBEs, 4-NPB substrate; type: biochemical; conditions: n=3
Procedure: as §1

PSMB7 = target: T1, PSMB7 (Homo sapiens, UniProt Q99436); experiment: Protease selectivity panel; type: biochemical; conditions: 100 μM compound, n = 2
T1 construct: purchased BOSTON-BIOCHEM
Procedure: (§2) Test compounds were dissolved in 100% DMSO to make 10 mM stock. Final compound concentration in assay is […]. Compounds were tested in duplicate wells at single concentration and the final concentration of DMSO in all assays was kept at 1%. Five reference compounds, AEBSF, Carfilzomib, Granzyme B Inhibitor II, Dec-RVKR-CMK, and Teneligliptin hydrobromide, were tested in an identical manner with 8 concentration points at 5× dilutions.

uPA = target: T2, uPA (Homo sapiens, UniProt P00749); experiment: Protease selectivity panel; type: biochemical; conditions: 100 μM compound, n = 2
T2 construct: purchased R&D Systems
Procedure: as §2

DPP8 = target: T3, DPP8 (Homo sapiens, UniProt Q6V1X1); experiment: Protease selectivity panel; type: biochemical; conditions: 100 μM compound, n = 2
T3 construct: purchased ENZO
Procedure: as §2

PSMB10 = target: T4, PSMB10 (Homo sapiens, UniProt P40306); experiment: Protease selectivity panel; type: biochemical; conditions: 100 μM compound, n = 2
T4 construct: purchased BOSTON-BIOCHEM
Procedure: as §2

PSMB6 = target: T5, PSMB6 (Homo sapiens, UniProt P28072); experiment: Protease selectivity panel; type: biochemical; conditions: 100 μM compound, n = 2
T5 construct: purchased BOSTON-BIOCHEM
Procedure: as §2

Matriptase = target: T6, Matriptase (Homo sapiens, UniProt Q9Y5Y6); experiment: Protease selectivity panel; type: biochemical; conditions: 100 μM compound, n = 2
T6 construct: purchased R&D Systems
T6 sequence (Q9Y5Y6 1-855): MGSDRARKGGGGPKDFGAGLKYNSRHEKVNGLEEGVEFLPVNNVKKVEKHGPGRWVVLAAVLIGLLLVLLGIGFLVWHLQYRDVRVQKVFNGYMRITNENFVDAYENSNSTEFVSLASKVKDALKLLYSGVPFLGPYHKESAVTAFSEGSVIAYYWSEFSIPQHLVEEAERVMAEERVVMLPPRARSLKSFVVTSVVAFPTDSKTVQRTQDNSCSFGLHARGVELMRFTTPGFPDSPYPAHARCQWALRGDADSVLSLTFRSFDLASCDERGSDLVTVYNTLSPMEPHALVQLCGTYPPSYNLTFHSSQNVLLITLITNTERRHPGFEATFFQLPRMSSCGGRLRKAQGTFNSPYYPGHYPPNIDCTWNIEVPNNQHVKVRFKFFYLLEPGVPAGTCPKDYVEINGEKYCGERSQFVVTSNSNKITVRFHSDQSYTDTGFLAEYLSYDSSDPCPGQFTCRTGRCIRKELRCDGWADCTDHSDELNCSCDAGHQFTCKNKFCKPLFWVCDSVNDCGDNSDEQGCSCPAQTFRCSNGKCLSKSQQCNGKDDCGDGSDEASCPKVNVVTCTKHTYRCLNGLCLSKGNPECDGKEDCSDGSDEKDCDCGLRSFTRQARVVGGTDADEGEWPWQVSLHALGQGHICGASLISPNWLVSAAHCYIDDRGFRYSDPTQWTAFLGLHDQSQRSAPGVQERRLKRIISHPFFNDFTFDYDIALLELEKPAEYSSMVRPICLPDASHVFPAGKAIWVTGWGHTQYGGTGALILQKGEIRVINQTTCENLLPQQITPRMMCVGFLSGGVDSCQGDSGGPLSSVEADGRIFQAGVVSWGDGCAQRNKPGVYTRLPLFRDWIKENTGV
Procedure: as §2

Furin = target: T7, Furin (Homo sapiens, UniProt P09958); experiment: Protease selectivity panel; type: biochemical; conditions: 100 μM compound, n = 2
T7 construct: purchased R&D Systems
Procedure: as §2

GranzymeB = target: T8, GranzymeB (Homo sapiens, UniProt P10144); experiment: Protease selectivity panel; type: biochemical; conditions: 100 μM compound, n = 2
T8 construct: purchased ENZO
Procedure: as §2

PSMB9 = target: T9, PSMB9 (Homo sapiens, UniProt P28065); experiment: Protease selectivity panel; type: biochemical; conditions: 100 μM compound, n = 2
T9 construct: purchased BOSTON-BIOCHEM
Procedure: as §2

SMILES: CCOP(=S)(OCC)Oc1nc(Cl)c(Cl)cc1Cl [CPE, Chlorpyrifos-ethyl]
- Percentage of efficacy ([1]; 1 DAT, CPE 0.7): 38%
- Percentage of efficacy ([1]; 1 DAT, CPE 1.4): 41%
- Percentage of efficacy ([1]; 1 DAT, CPE 2.8 g a.i./ha): 32%
- Percentage of efficacy ([1]; 1 DAT, CPE 5.6 g a.i./ha): 36%
- Percentage of efficacy ([1]; 3 DAT, CPE 0.7): 20%
- Percentage of efficacy ([1]; 3 DAT, CPE 1.4): 27%
- Percentage of efficacy ([1]; 3 DAT, CPE 2.8 g a.i./ha): 26%
- Percentage of efficacy ([1]; 3 DAT, CPE 5.6 g a.i./ha): 48%
- Percentage of efficacy ([1]; 7 DAT, CPE 0.7): 25%
- Percentage of efficacy ([1]; 7 DAT, CPE 1.4): 25%
- Percentage of efficacy ([1]; 7 DAT, CPE 2.8 g a.i./ha): 23%
- Percentage of efficacy ([1]; 7 DAT, CPE 5.6 g a.i./ha): 67%
- Calibration results ([1]; 1 DAT, CPE 1.4): 33%
- Calibration results ([1]; 1 DAT, CPE 2.8): 31%
- Calibration results ([1]; 1 DAT, CPE 5.6): 67%
- Calibration results ([1]; 3 DAT, CPE 1.4): 51%
- Calibration results ([1]; 3 DAT, CPE 2.8): 79%
- Calibration results ([1]; 3 DAT, CPE 5.6): 98%
- Calibration results ([1]; 7 DAT, CPE 1.4): 51%
- Calibration results ([1]; 7 DAT, CPE 2.8): 99%
- Calibration results ([1]; 7 DAT, CPE 5.6): 100%

SMILES: Cc1ccc(B(O)O)cc1OCc1ccccc1 [Compound 2]
- cellular toxicity [2]: low toxicity against HB-2
- pKi [3]: 5.62
- pKi (Aedes aegypti CBE): 5.51
- pKi (Anopheles gambiae CBE): 6.77

SMILES: CC(C)Oc1cc(Br)cc(B(O)O)c1 [Compound 3.7, 3-Bromo-5-isopropoxyphenylboronic acid]
- toxicity of the boronic acid derivative alone (in words) [1]: No significant toxicity
- insecticidal efficacy of CPE on addition of the compound (in words) [1]: increased
- pKi [3]: 6.05
- pKi (Aedes aegypti CBE): 5.59
- pKi (Anopheles gambiae CBE): 6.48

SMILES: OB(O)c1cc(Br)cc(OCc2ccccc2)c1 [Compound 3.9]
- cellular toxicity [2]: do not exhibit any cellular toxicity up to 100 μM
- inhibition at 100 µM (PSMB7): 70%
- inhibition at 100 µM (uPA): 40%
- inhibition at 100 µM (DPP8): 53%
- inhibition at 100 µM (PSMB10): 78%
- inhibition at 100 µM (PSMB6): 54%
- inhibition at 100 µM (Matriptase): 5%
- inhibition at 100 µM (Furin): -2%
- inhibition at 100 µM (GranzymeB): 17%
- inhibition at 100 µM (PSMB9): 50%

SMILES: OB(O)c1cc(Br)cc(Oc2ccccc2)c1 [Compound 3.10, 3-Bromo-5-phenoxyfenylboronic acid]
- toxicity of the boronic acid derivative alone (in words) [1]: No significant toxicity
- insecticidal efficacy of CPE on addition of the compound (in words) [1]: increased
- cellular toxicity [2]: do not exhibit any cellular toxicity up to 100 μM
- inhibition at 100 µM (PSMB7): 48%
- inhibition at 100 µM (uPA): 32%
- inhibition at 100 µM (DPP8): 37%
- inhibition at 100 µM (PSMB10): 45%
- inhibition at 100 µM (PSMB6): 27%
- inhibition at 100 µM (Matriptase): 4%
- inhibition at 100 µM (Furin): -5%
- inhibition at 100 µM (GranzymeB): 11%
- inhibition at 100 µM (PSMB9): 15%

SMILES: OB(O)c1cc(Br)cc(N2CCCC2)c1 [Compound 3]
- inhibition at 100 µM (PSMB7): 39%
- inhibition at 100 µM (uPA): 67%
- inhibition at 100 µM (DPP8): 42%
- inhibition at 100 µM (PSMB10): 43%
- inhibition at 100 µM (PSMB6): 16%
- inhibition at 100 µM (Matriptase): -1%
- inhibition at 100 µM (Furin): 1%
- inhibition at 100 µM (GranzymeB): 3%
- inhibition at 100 µM (PSMB9): 12%
- pKi [3]: 5.33
- pKi (Aedes aegypti CBE): 5.00
- pKi (Anopheles gambiae CBE): 6.10

SMILES: OB(O)c1ccc(OCc2ccccc2F)c(Cl)c1 [Compound 5, 3-Chloro-4(2′-fluorobenzyloxy) phenylboronic acid]
- toxicity of the boronic acid derivative alone (in words) [1]: No significant toxicity
- insecticidal efficacy of CPE on addition of the compound (in words) [1]: increased
- cellular toxicity [2]: low toxicity against HB-2
- pKi [3]: 6.38
- pKi (Aedes aegypti CBE): 4.40
- pKi (Anopheles gambiae CBE): 7.52
